{"source": "BindingDB's records for doi:10.1021/jm201702g", "about": "(Ambit Biosciences, 2012)", "assay": "Inhibition of Aurora kinase B in human HCT116 cells assessed as induction of 8N polyploidy"}
{"smiles": "Cc1cc(Nc2nc(Sc3ccc(NC(=O)CN4CC[C@@H](C(=O)NC5CCCC5)C4)cc3)nn3cccc23)n[nH]1", "values": [{"measurement": "EC50", "value": 3, "unit": "nM"}]}
{"smiles": "Cc1cc(Nc2nc(Sc3ccc(NC(=O)CN4CC[C@@H](C(=O)N5CCC(F)(F)C5)C4)cc3)nn3cccc23)n[nH]1", "values": [{"measurement": "EC50", "value": 3, "unit": "nM"}]}
